From publication PMC9532535 (Acta Pharmaceutica Sinica. B, 2022)

Legend:
[1] = Measurement of critical aggregation concentration; assay type: physicochemical; conditions: in water, 37 °C overnight, ACQ probe P2 fluorescence
Caco-2 monolayer = assay: Transport across the Caco-2 monolayer; assay type: in vitro ADME; conditions: Caco-2 monolayer without Raji
[2] = ref [37]; cited from earlier work

Compound | CAC (critical aggregation concentration) [1] | transport of PTX in the Caco-2 monolayer (Caco-2 monolayer) | plasma protein binding [2]
CCCCCCCCCCCCCCCCCC(=O)[O-].C[N+](C)(C)CCO [Choline stearate] | 0.37 ± 0.02 mmol/L |  | 
CC(=O)O[C@H]1C(=O)[C@@]2(C)[C@H]([C@H](OC(=O)c3ccccc3)[C@]3(O)C[C@H](OC(=O)[C@H](O)[C@@H](NC(=O)c4ccccc4)c4ccccc4)C(C)=C1C3(C)C)[C@]1(OC(C)=O)CO[C@@H]1C[C@@H]2O [PTX, paclitaxel] |  | negligible | greater than 90%
Choline oleate | 0.19 ± 0.01 mmol/L |  | 
